Source: patent US8445674B2, “Heterocyclyl compounds” (Hoffmann-La Roche Inc, priority 2009, dated 2013)

biological target: T1, human chemokine receptor 2 isoform B (Homo sapiens, UniProt P41597); assay: Calcium mobilization assay (FLIPR, antagonist activity against MCP-1); assay type: cell-based; conditions: Ca mobilisation assay, CHOK1-CCR2B-A5 cells, inhibition of calcium increase induced by 20 nM MCP-1
T1 construct: host or cells: CHOK1-CCR2B-A5 cells (CHO-K1)
T1 sequence (P41597 1-360 isoform P41597-2): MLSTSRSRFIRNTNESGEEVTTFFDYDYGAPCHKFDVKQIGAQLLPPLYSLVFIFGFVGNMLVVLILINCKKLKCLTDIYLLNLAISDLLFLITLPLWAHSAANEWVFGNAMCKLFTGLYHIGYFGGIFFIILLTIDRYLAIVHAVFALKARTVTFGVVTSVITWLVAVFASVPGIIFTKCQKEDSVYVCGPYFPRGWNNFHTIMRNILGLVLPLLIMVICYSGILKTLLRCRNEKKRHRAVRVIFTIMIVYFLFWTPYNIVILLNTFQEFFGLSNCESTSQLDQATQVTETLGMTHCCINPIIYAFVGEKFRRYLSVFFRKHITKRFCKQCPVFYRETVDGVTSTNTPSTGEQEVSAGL
Method in brief: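 CHOK1 cells stably overexpressing human CCR2B, loaded with 4 μM Fluo-4 for 2 h at 30° C, compounds added and agonist signal read by FLIPR for 80 s. After 20-30 min at 30° C, 20 nM MCP-1 was added and fluorescence read again. IC50 is 50% inhibition of specific calcium increase (max minus basal).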

IC50 [nM] | SMILES
65.9 | CC1(O)CCN(C(=O)CCN2CCN(C(=O)/C=C/c3ccc(Cl)c(Cl)c3)CCC2=O)CC1 [Example 73, 1-[(E)-3-(3,4-Dichloro-phenyl)-acryloyl]-4-[3-(4-hydroxy-4-methyl-piperidin-1-yl)-3-oxo-propyl]-[1,4]diazepan-5-one]
1970 | O=C(/C=C/c1ccc(Cl)c(Cl)c1)N1CCC(=O)N(CCC(=O)N2CC[C@H](O)[C@H](O)C2)CC1 (racemic) [Example 2, 1-[(E)-3-(3,4-Dichloro-phenyl)-acryloyl]-4-[3-((3RS,4SR)-3,4-dihydroxy-piperidin-1-yl)-3-oxo-propyl]-[1,4]diazepan-5-one]
51.2 | O=C(/C=C/c1ccc(Cl)c(Cl)c1)N1CCC(=O)N(CCC(=O)N2CCC(O)(c3ccncc3)CC2)CC1 [Example 78, 1-[(E)-3-(3,4-Dichloro-phenyl)-acryloyl]-4-[3-(4-hydroxy-3,4,5,6-tetrahydro-2H-[4,4′]bipyridinyl-1-yl)-3-oxo-propyl)-[1,4]diazepan-5-one]
146 | O=C(/C=C/c1ccc(Cl)c(Cl)c1)N1CCC(=O)N(CCC(=O)N2CCC(c3cc[nH]n3)CC2)CC1 [Example 91, 1-[(E)-3-(3,4-Dichloro-phenyl)-acryloyl]-4-{3-oxo-3-[4-(1H-pyrazol-3-yl)-piperidin-1-yl]-propyl}-[1,4]diazepan-5-one]
188 | C[C@H]1C(=O)N(CC[C@H](O)C(=O)N2CCC3(CC3)[C@H](O)C2)CCN1C(=O)Nc1ccc(C(F)(F)F)c(Cl)c1 [Example 134, (S)-4-[(S)-3-Hydroxy-4-((S)-4-hydroxy-6-aza-spiro[2.5]oct-6-yl)-4-oxo-butyl]-2-methyl-3-oxo-piperazine-1-carboxylic acid (3-chloro-4-trifluoromethyl-phenyl)-amide]
387 | C[C@H]1C(=O)N([C@@H](CCC(=O)N2CCC3(CC3)[C@H](O)C2)C(=O)O)CCN1C(=O)Nc1ccc(OC(F)(F)F)c(Cl)c1 [Example 56, Lithium; (S)-2-[(S)-4-(3-chloro-4-trifluoromethoxy-phenylcarbamoyl)-3-methyl-2-oxo-piperazin-1-yl]-5-((S)-4-hydroxy-6-aza-spiro[2.5]oct-6-yl)-5-oxo-pentanoate]
563 | CN(C)C(=O)C(CCO)N1CCN(C(=O)/C=C/c2ccc(Cl)c(Cl)c2)CCC1=O (racemic) [Example 3, (rac)-2-{4-[(E)-3-(3,4-Dichloro-phenyl)-acryloyl]-7-oxo-[1,4]diazepan-1-yl}-4-hydroxy-N,N-dimethyl-butyramide]
41.7 | C[C@H]1C(=O)N(CCCC(=O)N2CCC3(CC3)[C@H](O)C2)CCN1c1ccc(Cl)c(OC(F)(F)F)c1 [Example 62, (S)-4-(4-chloro-3-trifluoromethoxy-phenyl)-1-[4-((S)-4-hydroxy-6-aza-spiro[2.5]oct-6-yl)-4-oxo-butyl]-3-methyl-piperazin-2-one]
5.9 | C[C@H]1C(=O)N(CCCC(=O)N2CCC3(CC3)[C@H](O)C2)CCN1C(=O)Nc1ccc(Cl)c(C(F)(F)F)c1 [Example 32, (S)-4-[4-((S)-4-Hydroxy-6-aza-spiro[2.5]oct-6-yl)-4-oxo-butyl]-2-methyl-3-oxo-piperazine-1-carboxylic acid (4-chloro-3-trifluoromethyl-phenyl)-amide]
4 | C[C@H]1C(=O)N(C[C@H](O)CC(=O)N2CCC3(CC3)[C@H](O)C2)CCN1C(=O)Nc1ccc(C(F)(F)F)c(Cl)c1 [Example 43, (S)-4-[(R)-2-Hydroxy-4-((S)-4-hydroxy-6-aza-spiro[2.5]oct-6-yl)-4-oxo-butyl]-2-methyl-3-oxo-piperazine-1-carboxylic acid (3-chloro-4-trifluoromethyl-phenyl)-amide]
1340 | C[C@H]1C(=O)N(CCCC(=O)N2CCS(=O)(=O)CC2)CCN1C(=O)Nc1cccc(Cl)c1 [Example 110, (S)-4-[4-(1,1-Dioxo-1 lambda*6*-thiomorpholin-4-yl)-4-oxo-butyl]-2-methyl-3-oxo-piperazine-1-carboxylic acid (3-chloro-phenyl)-amide]
